Earlier results in US20120015968A1, “USE OF PYRIMIDYLAMINOBENZAMIDE DERIVATIVES FOR THE TREATMENT OF DISORDERS MEDIATED BY THE LEUCINE ZIPPER-AND STERILE ALPHA MOTIF-CONTAINING KINASE (ZAK)” (NOVARTIS AG, priority 2009, published 2012).

Molecular target: ZAK (Homo sapiens, UniProt Q9NYL2)
Settings: biotinylated myelin basic protein as substrate; U. Rix et al, Leukemia (2010) 24, 44-50, p. 48; read-out: IC50 of inhibition of ZAK activity

Chain of ZAK (Q9NYL2 whole entry): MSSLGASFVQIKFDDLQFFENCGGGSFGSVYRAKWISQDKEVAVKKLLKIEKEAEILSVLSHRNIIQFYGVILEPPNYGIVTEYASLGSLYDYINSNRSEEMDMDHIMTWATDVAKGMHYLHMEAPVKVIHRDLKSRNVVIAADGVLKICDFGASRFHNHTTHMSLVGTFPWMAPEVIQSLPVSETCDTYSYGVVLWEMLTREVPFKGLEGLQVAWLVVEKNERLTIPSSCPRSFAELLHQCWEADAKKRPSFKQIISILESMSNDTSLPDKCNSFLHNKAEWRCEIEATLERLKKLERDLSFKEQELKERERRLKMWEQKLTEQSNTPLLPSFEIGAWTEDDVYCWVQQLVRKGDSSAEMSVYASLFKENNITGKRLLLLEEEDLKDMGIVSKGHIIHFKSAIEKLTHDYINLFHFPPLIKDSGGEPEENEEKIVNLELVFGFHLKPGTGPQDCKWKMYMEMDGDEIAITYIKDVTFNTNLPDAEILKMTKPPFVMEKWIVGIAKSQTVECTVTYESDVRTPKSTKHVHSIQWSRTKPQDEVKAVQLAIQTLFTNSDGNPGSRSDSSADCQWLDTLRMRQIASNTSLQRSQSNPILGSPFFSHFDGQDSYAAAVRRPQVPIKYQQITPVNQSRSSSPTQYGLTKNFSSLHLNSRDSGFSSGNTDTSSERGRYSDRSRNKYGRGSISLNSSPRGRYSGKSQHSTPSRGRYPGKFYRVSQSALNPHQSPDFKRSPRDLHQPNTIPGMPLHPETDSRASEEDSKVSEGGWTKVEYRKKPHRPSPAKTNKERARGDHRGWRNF

- IC50: 73 nM
Structure (SMILES): Cc1ccc(NC(=O)c2ccc(CN3CC[C@H](N(C)C)C3)c(C(F)(F)F)c2)cc1Nc1nccc(-c2cncnc2)n1 [INNO-406]
